Test results taken from ChEMBL document CHEMBL1201862, “PubChem BioAssay data set” (2004).
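How tested: cells in 96-well plates exposed to compound for 48 hours at five concentrations. GI50 marks 50% less growth.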 Calls of active or inactive are those of the source. Cut-off read from the data, not from the text of the source: active = GI50 up to about 1.1 µM and inactive = higher.

Experiments:
Assay in all cases: NCI-60 cell line screen, 48 h
SF-295 = system: SF-295
U-251 = system: U-251
Malme-3M = system: Malme-3M
SNB-75 = system: SNB-75
DMS-114 = system: DMS-114
K562 = system: K562
A549 = system: A549
M19-MEL = system: M19-MEL
NCI-H460 = system: NCI-H460
ACHN = system: ACHN
COLO 205 = system: COLO 205
HCT-15 = system: HCT-15
HOP-92 = system: HOP-92
SF-268 = system: SF-268
UO-31 = system: UO-31
TK-10 = system: TK-10
RPMI-8226 = system: RPMI-8226
EKVX = system: EKVX
M14 = system: M14
786-0 = system: 786-0
SF-539 = system: SF-539
OVCAR-8 = system: OVCAR-8
SK-MEL-28 = system: SK-MEL-28
SNB-78 = system: SNB-78
DLD-1 = system: DLD-1
OVCAR-5 = system: OVCAR-5
HOP-18 = system: HOP-18
OVCAR-3 = system: OVCAR-3
HT-29 = system: HT-29
DMS-273 = system: DMS-273
MOLT-4 = system: MOLT-4
UACC-257 = system: UACC-257
CCRF-CEM = system: CCRF-CEM
NCI-H23 = system: NCI-H23
SK-MEL-5 = system: SK-MEL-5
OVCAR-4 = system: OVCAR-4
XF498 = system: XF498
NCI-H226 = system: NCI-H226
IGROV-1 = system: IGROV-1
HL-60 = system: HL-60
KM12 = system: KM12
SN12C = system: SN12C
SK-OV-3 = system: SK-OV-3
SK-MEL-2 = system: SK-MEL-2
LXFL 529 = system: LXFL 529
HCC 2998 = system: HCC 2998
HCT-116 = system: HCT-116
HOP-62 = system: HOP-62
SNB-19 = system: SNB-19
RXF 393 = system: RXF 393
CAKI-1 = system: CAKI-1
LOX IMVI = system: LOX IMVI
KM-20L2 = system: KM-20L2
A498 = system: A498
UACC-62 = system: UACC-62
SW-620 = system: SW-620
NCI-H522 = system: NCI-H522
SR = system: SR

Measured: GI50

CC1(O)CC2C(CC1SC1CC3C(CC1(C)O)C3(C)C)C2(C)C (stereo not drawn)
inactive: SF-295 46 µM | U-251 41.6 µM | Malme-3M 29.6 µM | SNB-75 27.9 µM | DMS-114 48.5 µM | K562 30.5 µM | A549 50.8 µM | M19-MEL 24.9 µM | NCI-H460 30.7 µM | ACHN 35 µM | COLO 205 35.5 µM | HOP-92 36.2 µM | SF-268 > 100 µM | UO-31 24 µM | TK-10 69.7 µM | RPMI-8226 41.9 µM | EKVX 32.5 µM | M14 48.2 µM | 786-0 43.6 µM | SF-539 > 100 µM | OVCAR-8 41.9 µM | SK-MEL-28 > 100 µM | SNB-78 73.3 µM | DLD-1 74.8 µM | OVCAR-5 78.9 µM | HOP-18 35.2 µM | OVCAR-3 38.8 µM | HT-29 39.6 µM | DMS-273 41.5 µM | MOLT-4 43.1 µM | UACC-257 49 µM | CCRF-CEM 27 µM | NCI-H23 41.7 µM | SK-MEL-5 11.6 µM | OVCAR-4 21.7 µM | XF498 35.1 µM | NCI-H226 65.6 µM | IGROV-1 45 µM | HL-60 22.9 µM | KM12 46.8 µM | SN12C 36.1 µM | SK-OV-3 54.7 µM | SK-MEL-2 40.1 µM | LXFL 529 52.2 µM | HCC 2998 33.6 µM | HCT-116 44.8 µM
39.1 µM: HCT-15

O=C(NNc1ccc([N+](=O)[O-])cc1)C1OC(CO)C(O)C1O (stereo not drawn)
54.8 µM: HCT-15
inactive: HOP-62 > 100 µM | SF-295 > 100 µM | SNB-19 > 100 µM | U-251 > 100 µM | Malme-3M > 100 µM | SNB-75 > 100 µM | DMS-114 > 100 µM | K562 67 µM | A549 > 100 µM | M19-MEL > 100 µM | NCI-H460 > 100 µM | ACHN > 100 µM | COLO 205 > 100 µM | RXF 393 > 100 µM | HOP-92 > 100 µM | SF-268 > 100 µM | UO-31 > 100 µM | TK-10 > 100 µM | RPMI-8226 30.5 µM | EKVX > 100 µM | M14 > 100 µM | 786-0 26.4 µM | SF-539 > 100 µM | OVCAR-8 > 100 µM | SK-MEL-28 > 100 µM | SNB-78 > 100 µM | DLD-1 47.1 µM | OVCAR-5 > 100 µM | HOP-18 > 100 µM | CAKI-1 > 100 µM | OVCAR-3 > 100 µM | LOX IMVI > 100 µM | KM-20L2 > 100 µM | A498 > 100 µM | HT-29 59.8 µM | DMS-273 > 100 µM | MOLT-4 > 100 µM | UACC-257 > 100 µM | CCRF-CEM 43.7 µM | NCI-H23 > 100 µM | UACC-62 > 100 µM | SK-MEL-5 > 100 µM | OVCAR-4 > 100 µM | XF498 > 100 µM | NCI-H226 > 100 µM | IGROV-1 > 100 µM | HL-60 58.9 µM | SW-620 21.8 µM | KM12 81.8 µM | SN12C > 100 µM | SK-OV-3 > 100 µM | SK-MEL-2 > 100 µM | LXFL 529 38.3 µM | HCC 2998 > 100 µM | HCT-116 > 100 µM

CC(=O)Oc1ccc(Nn2c3ccccc3c3ccccc32)c(C)c1
24.6 µM: HCT-15
inactive: HOP-62 36.1 µM | SF-295 25.8 µM | SNB-19 78.7 µM | U-251 46 µM | Malme-3M 28.6 µM | DMS-114 27.1 µM | NCI-H522 19.3 µM | K562 32.1 µM | SR 21.7 µM | A549 56.8 µM | M19-MEL 31.9 µM | NCI-H460 27.7 µM | COLO 205 31.7 µM | RXF 393 29.5 µM | HOP-92 24.5 µM | SF-268 45.9 µM | UO-31 39.1 µM | TK-10 39.3 µM | RPMI-8226 15.7 µM | M14 29 µM | 786-0 20.6 µM | SF-539 > 10 µM | OVCAR-8 24.3 µM | SK-MEL-28 67.6 µM | SNB-78 39.4 µM | DLD-1 43.9 µM | OVCAR-5 > 100 µM | HOP-18 16.7 µM | OVCAR-3 42.6 µM | LOX IMVI > 10 µM | KM-20L2 29.4 µM | DMS-273 19.6 µM | MOLT-4 23.4 µM | UACC-257 33.4 µM | CCRF-CEM 29.8 µM | NCI-H23 38.2 µM | UACC-62 51.5 µM | SK-MEL-5 39.2 µM | XF498 27.7 µM | IGROV-1 23.6 µM | HL-60 22.3 µM | SW-620 25.2 µM | KM12 36.6 µM | SN12C 41.5 µM | SK-OV-3 40.9 µM | SK-MEL-2 37 µM | LXFL 529 33.7 µM | HCC 2998 27.7 µM | HCT-116 35.7 µM
